The source of these data is patent EP1988087A1, “Novel 5-cyano-prostacyclin derivatives and their use as agents for the treatment of autoimmune diseases” (Bayer Schering Pharma Aktiengesellschaft, priority 2007, dated 2008).

In this experiment the target is EP4 receptor (Homo sapiens, UniProt P35408). Briefly: cAMP accumulation assay in cells expressing EP4 (Biological Example 1, diol derivative). It is filed as cell-based. To be noted: cAMP luminescence, mean of triplicate. On the procedure:
Commercial cAMP accumulation assays are typically competitive immunoassays in which free cAMP from cell lysates competes for antibody binding against a "labeled" cAMP molecule. This positive signal is generated in direct proportion to the amount of free cAMP. In our assays cAMP standards and samples are pipetted into the wells of a microplate. An antibody specific cAMP is added to the wells. A substrate is added to the wells and luminescence develops in proportion to the amount of cAMP which accumulated during treatment of cells which express the EP4 receptor with standards and samples. The intensity of the luminescence is measured in a luminometer.
The response of the EP4 expressing cells treated with the diol derivative is compared to Nileprost. Results shown are the mean of triplicate determinations.

Sequence of EP4 receptor (P35408 whole entry): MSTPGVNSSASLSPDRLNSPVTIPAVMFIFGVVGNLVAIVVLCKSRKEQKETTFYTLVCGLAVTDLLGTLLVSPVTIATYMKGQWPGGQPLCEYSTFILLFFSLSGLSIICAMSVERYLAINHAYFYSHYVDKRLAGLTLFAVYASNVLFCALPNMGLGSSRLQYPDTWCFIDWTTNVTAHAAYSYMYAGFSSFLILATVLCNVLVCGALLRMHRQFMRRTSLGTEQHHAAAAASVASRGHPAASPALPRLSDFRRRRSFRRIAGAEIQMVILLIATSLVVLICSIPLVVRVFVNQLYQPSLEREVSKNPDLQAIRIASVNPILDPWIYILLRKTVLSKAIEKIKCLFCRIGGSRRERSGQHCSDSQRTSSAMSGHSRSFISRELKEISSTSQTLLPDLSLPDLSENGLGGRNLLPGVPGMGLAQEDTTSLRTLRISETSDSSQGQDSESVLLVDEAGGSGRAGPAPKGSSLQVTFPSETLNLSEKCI

On to `CCCCC(C)[C@H](O)/C=C/[C@@H]1[C@H]2C/C(=C(\C#N)CCCC(=O)O)O[C@H]2C[C@H]1O` (stereo partly drawn) [Nileprost, 5-cyano-16-methylprostacyclin], for which the RLU - background is, setting by setting: (compound 0.010 nM) 0 RLU; (compound 0.152 nM) 850786 RLU; (compound 0.457 nM) 1291900 RLU; (compound 1.372 nM) 1521826 RLU; (compound 4.115 nM) 1626762 RLU; (compound 12.346 nM) 1589698 RLU. The RLU - background runs as follows: (compound 37.037 nM) 1312998 RLU; (compound 111.111 nM) 1258626 RLU; (compound 333.333 nM) 1648306 RLU; (compound 1000.000 nM) 1635488 RLU; (compound 3000.000 nM) 1625442 RLU; (compound 9000.000 nM) 1599712 RLU.
